pIC50: −log10 of the molar value. Several values for one entry are separate records, joined by “and”; a condition that tells them apart may be missing. Identical values can stand only once.
Tested on: DMS-114 complex spheroids with HUVEC/MSC, growth % test/control
Experiment: Anticancer human tumor DMS-114 cell line growth inhibition [AhR];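 further: spheroids exposed to agents for 7 days before readout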;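 on viability, T/C: 100% = DMSO vehicle control wells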
Conditions: for viability, T/C: stronger effect = lower value
Description: Multicellular complex tumor spheroid response to aryl hydrocarbon receptor antagonists in combination with a variety of drugs and investigational agents in selected tumor cell lines
The current study was undertaken to assess response to aryl hydrocarbon receptor antagonists in combination with standard-of-care drugs and investigational agents in solid tumor complex spheroid models. Complex spheroids include a stromal component modeled by human endothelial cells (HUVEC) and fibroblasts modeled by human mesenchymal stem cells (MSCs). The concentration ranges selected for each drug and investigational agent were based upon clinically achievable concentrations if the clinical Cmax of the agent was known.
Compounds. The drugs and investigational agents: BAY 2416964 (NSC825713), GNF351 (NSC835774), CH-223191 (NSC835775), CPI-455 (NSC825282), aza-TdCyd (NSC777586), decitabine (NSC127716), belinostat (NSC758774), entinostat (NSC756642), pevonedistat (NSC761192), tazemetostat (NSC777109), talazoparib (NSC765396), olaparib (NSC753686), selinexor (NSC780203), nedisertib (M3814, NSC802822), bortezomib (NSC756655), venetoclax (NSC766270), doxorubicin (NSC123127), elimusertib (BAY189344, NSC800525), ceralasertib (AZD6738, NSC777638), TAK-243 (NSC785004), alisertib (NSC759677), etoposide (NSC141540), topotecan (NSC609699), eribulin (NSC707389), gemcitabine (NSC613327), carboplatin (NSC241240), cisplatin (NSC119875), and SN-38 (NSC673596) were obtained from the National Cancer Institute (NCI) Developmental Therapeutics Program Chemical Repository (32). The FDA-approved anticancer drug set is available from the Developmental Therapeutics Program at https://dtp.cancer.gov/organization/dscb/obtaining/available plates.htm. […] The stock solutions were prepared in dimethyl sulfoxide (DMSO, Sigma-Aldrich, St. Louis, MO, cat. D2650), except for the platinum compounds which were prepared in saline (Quality Biological, Gaithersburg, MD, cat. 114-055-101), at 800-fold the tested concentration and stored at -70 degrees C prior to their use. All drugs and investigational agents were tested over a range starting from a high concentration at or near the clinical Cmax and decreasing in half-log increments. If the clinical Cmax for an agent had not been determined, the highest concentration tested was 10 microM (Table 1).
Cell Culture. All cells were maintained in an incubator at 37 degrees C and 5% CO2 with 95% humidity. The PDC lines were cultured according to standard operating procedures established by the NCI PDMR (https://pdmr.cancer.gov). Briefly, all PDCs were thawed and cultured in Matrigel-coated flasks prepared with a working solution of 1X Ham's F-12 nutrient mix, without supplementation (Invitrogen, Waltham, MA, cat. 11765054), 100 U/mL penicillin-streptomycin (Invitrogen, cat. 15140122), and 2.5% Matrigel (Corning Inc., Corning, NY, cat. 354248) for the first three passages. All PDCs were cultured in complete DMEM/F-12 media containing advanced DMEM/F-12 (Invitrogen, cat. 12634028), 4.9% defined fetal bovine serum, heat inactivated (HyClone Laboratories Inc., Logan, UT, cat. SH30070.03HI), 389 ng/mL hydrocortisone (Sigma-Aldrich, cat. H4001), 9.7 ng/mL human EGF recombinant protein (Invitrogen, cat. PHG0313), 23.4 microg/mL adenine (Sigma-Aldrich, cat. A2786), 97.3 U/mL penicillin-streptomycin (Invitrogen, cat. 15140122), 1.9 mM L-glutamine (Invitrogen, cat. 25030081), and 9.7 microM Y-27632 dihydrochloride (Tocris Bioscience, Bristol, United Kingdom, cat. 1254). The PDCs were cultured in complete DMEM/F12 media without 10 microM Y-27632 dihydrochloride for at least two passages prior to the screen. The established cell lines NCI-H1341 and […] were cultured in DMEM/F-12, HEPES (Invitrogen, cat. 11330032), 5% defined fetal bovine serum (HyClone Laboratories Inc., cat. SH30070.03), ITS premix universal culture supplement [insulin (5 microg/mL), transferrin (5 microg/mL), and selenious acid (5 ng/mL)] […]

| Structure (SMILES) | viability, T/C (compound 0.0316 µM) | viability, T/C (compound 0.1 µM) | viability, T/C (compound 0.316 µM) | viability, T/C (compound 1 µM) | viability, T/C (compound 3.16 µM) | viability, T/C (compound 10 µM) | pIC50 (curve of compound) | further results |
| --- | --- | --- | --- | --- | --- | --- | --- | --- |
| COc1cccc2c1C(=O)c1c(O)c3c(c(O)c1C2=O)CC(O)(C(=O)CO)CC3OC1CC(N)C(O)C(C)O1 (stereo not given) | 23.9% and 68.6% and 44.3% | 18% and 54.1% and 32.1% | 4.97% and 18.6% and 9.53% | 0.27% and 1.97% and 1.19% | 0.18% and 0.45% and 0.38% | 0.28% and 0.73% and 0.56% | > 7.50 and 6.94 | – |
| Cc1ccccc1N=Nc1ccc(NC(=O)c2ccnn2C)c(C)c1 | – | 99.4% [middle of 20 runs] | 101% [middle of 20 runs] | 97.6% [middle of 20 runs] | – | 94% [middle of 20 runs] | – | pIC50 (compound alone, run of 07/26/2022): < 5.00 |
| Cn1ncnc1C1c2n[nH]c(=O)c3cc(F)cc(c23)NC1c1ccc(F)cc1 (stereo not given) | 93.1% and 107% and 99.9% | 76.3% and 101% and 86.2% | – | – | – | – | < 7.00 | viability, T/C (compound 0.000316 µM): 100% and 96.9% and 109%; viability, T/C (compound 0.001 µM): 98.4% and 102% and 98%; viability, T/C (compound 0.00316 µM): 95.9% and 96.9% and 99.1%; viability, T/C (compound 0.01 µM): 96% and 100% and 99.3% |
| NS(=O)(=O)OCC1CC(n2ccc3c(NC4CCc5ccccc54)ncnc32)CC1O (stereo not given) | 56% and 124% and 59.6% | 31.8% and 84.4% and 33.5% | 17.6% and 31.9% and 17.2% | 6.55% and 22.7% and 10.3% | 4.52% and 19.9% and 8.23% | 4.43% and 14.3% and 5.53% | 7.37 and 6.67 and 7.32 | – |
| Nc1ccccc1NC(=O)c1ccc(CNC(=O)OCc2cccnc2)cc1 | 89.7% and 96.8% and 108% | 85% and 94.1% and 92.8% | 68% and 90.9% and 67.3% | 37.8% and 74.1% and 40.4% | 15.6% and 44% and 22.9% | 8.33% and 24.4% and 14.5% | 6.20 and 5.60 and 6.18 | – |
| Nc1ccn(C2OC(CO)C(O)C2(F)F)c(=O)n1 (stereo not given) | 9.8% and 13.2% and 25.1% | 8.85% and 12.6% and 26.8% | 9.58% and 12.2% and 25.9% | 10.4% and 11% and 25.1% | 9.16% and 11.7% and 24.5% | 9.05% and 10.8% and 25.4% | > 7.50 | – |
| Nc1ncn(C2CC(O)C(CO)O2)c(=O)n1 (stereo not given) | 105% and 108% and 88.3% | 83.8% and 112% and 109% | 66.8% and 110% and 78% | 53.1% and 110% and 66.1% | – | – | < 6.00 | viability, T/C (compound 0.00316 µM): 91.9% and 109% and 106%; viability, T/C (compound 0.01 µM): 97.6% and 110% and 95% |
| Nc1ncn(C2CC(O)C(CO)S2)c(=O)n1 (stereo not given) | – | – | – | – | – | – | 6.65 and < 6.52 | viability, T/C (compound 0.000949 µM): 97.3% and 101% and 110%; viability, T/C (compound 0.003 µM): 108% and 102% and 116%; viability, T/C (compound 0.00949 µM): 112% and 104% and 102%; viability, T/C (compound 0.03 µM): 88.5% and 101% and 88.9%; viability, T/C (compound 0.0949 µM): 60.1% and 107% and 84.8%; viability, T/C (compound 0.3 µM): 46.1% and 86.9% and 52.9% |
| O=C(C=Cc1cccc(S(=O)(=O)Nc2ccccc2)c1)NO | 88.4% and 108% and 83% | 85.7% and 103% and 74.2% | 54.9% and 91% and 60% | 29.6% and 69.9% and 26.9% | 13.4% and 26.4% and 15.6% | 9.67% and 29.7% and 13.6% | 6.37 and 5.76 and 6.36 | – |
| O=C(C=Cn1cnc(-c2cc(C(F)(F)F)cc(C(F)(F)F)c2)n1)NNc1cnccn1 | – | – | – | – | – | – | 6.72 and 6.05 and 6.66 | viability, T/C (compound 0.00949 µM): 106% and 109% and 113%; viability, T/C (compound 0.03 µM): 96.6% and 110% and 97.4%; viability, T/C (compound 0.0949 µM): 64.5% and 108% and 80.5%; viability, T/C (compound 0.3 µM): 40.7% and 87.3% and 37.6%; viability, T/C (compound 0.949 µM): 15% and 48.7% and 18.4%; viability, T/C (compound 3 µM): 5.6% and 17.9% and 7.48% |
| O=C(c1cc(Cc2n[nH]c(=O)c3ccccc23)ccc1F)N1CCN(C(=O)C2CC2)CC1 | 106% and 111% and 105% | 110% and 111% and 95.4% | 97.3% and 106% and 87.7% | 98% and 103% and 96.3% | 82.4% and 108% and 76.7% | 50.8% and 105% and 60.7% | < 5.00 | – |

Source: PubChem BioAssay AID1919008 (Molecular Pharmacology Branch, DTP, NCI, 2023)
